Measured values from ChEMBL document CHEMBL1201862, “PubChem BioAssay data set” (2004).
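Growth conditions: 96-well plates. Treatment: test compound, 48 hours, 5 concentrations. Analysis: linear interpolation between bracketing concentrations; unreached endpoints set to highest concentration. GI50 = concentration required for 50% inhibition of growth.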 Calls of active or inactive are those of the source. Cut-off read from the data, not from the text of the source: active = GI50 up to about 1.1 µM and inactive = higher.

Assays:
Test in all cases: DTP human tumour cell line panel, 48 h
786-0 = tested on: 786-0
A549 = tested on: A549
CCRF-CEM = tested on: CCRF-CEM
DLD-1 = tested on: DLD-1
DMS-114 = tested on: DMS-114
DMS-273 = tested on: DMS-273
EKVX = tested on: EKVX
HL-60 = tested on: HL-60
IGROV-1 = tested on: IGROV-1
K562 = tested on: K562
NCI-H23 = tested on: NCI-H23
NCI-H522 = tested on: NCI-H522
OVCAR-3 = tested on: OVCAR-3
OVCAR-5 = tested on: OVCAR-5
SF-268 = tested on: SF-268
SK-OV-3 = tested on: SK-OV-3
SW-620 = tested on: SW-620
UACC-257 = tested on: UACC-257
UACC-62 = tested on: UACC-62
HOP-18 = tested on: HOP-18

Measured: GI50

COc1ccc(/C=C/C(C(=O)O)C(=O)O)cc1
inactive: 786-0 > 100 µM | A549 > 100 µM | CCRF-CEM 26.2 µM | DLD-1 > 100 µM | DMS-114 > 100 µM | DMS-273 > 100 µM | EKVX 78.9 µM | HL-60 24.3 µM | IGROV-1 > 100 µM | K562 32.4 µM | NCI-H23 > 100 µM | NCI-H522 30.8 µM | OVCAR-3 47.9 µM | OVCAR-5 78.5 µM | SF-268 67.5 µM | SK-OV-3 > 100 µM | SW-620 31.5 µM | UACC-257 97.9 µM | UACC-62 49.2 µM

N#Cc1ccc(Nc2cnc3ccc(N)cc3n2)cc1
inactive: 786-0 > 100 µM | A549 > 100 µM | CCRF-CEM > 100 µM | DLD-1 > 100 µM | DMS-114 > 100 µM | DMS-273 > 100 µM | EKVX > 100 µM | HL-60 > 100 µM | K562 > 100 µM | NCI-H23 > 100 µM | NCI-H522 > 100 µM | OVCAR-3 > 100 µM | OVCAR-5 > 100 µM | SF-268 > 100 µM | SK-OV-3 > 100 µM | SW-620 > 100 µM | UACC-257 > 100 µM | UACC-62 > 100 µM

C[C@@H](CO)OCOCc1ccccc1
inactive: 786-0 > 100 µM | A549 > 100 µM | CCRF-CEM > 100 µM | DLD-1 > 100 µM | DMS-114 > 100 µM | DMS-273 > 100 µM | HL-60 > 100 µM | IGROV-1 > 100 µM | K562 > 100 µM | NCI-H23 > 100 µM | NCI-H522 > 100 µM | OVCAR-3 > 100 µM | SF-268 > 100 µM | SK-OV-3 > 100 µM | SW-620 > 100 µM | UACC-257 > 100 µM | UACC-62 > 100 µM

Cc1cc2c(=O)cc(-c3ccncc3)oc2c(C(=O)O)c1C
inactive: 786-0 > 100 µM | A549 > 100 µM | CCRF-CEM > 100 µM | DMS-273 > 100 µM | EKVX > 100 µM | HL-60 > 100 µM | HOP-18 > 100 µM | IGROV-1 > 100 µM | NCI-H23 > 100 µM | OVCAR-3 > 100 µM | OVCAR-5 > 100 µM | SF-268 > 100 µM | SK-OV-3 > 100 µM | SW-620 > 100 µM | UACC-257 > 100 µM | UACC-62 > 100 µM

CCCCCC(=O)N[C@H]1CCc2cc(O)c(O)c(O)c2-c2ccc(SC)c(=O)cc21
inactive: 786-0 44.5 µM | A549 36.7 µM | CCRF-CEM 23.2 µM | DLD-1 19.6 µM | DMS-114 15.5 µM | DMS-273 32.5 µM | EKVX > 63.1 µM | HL-60 20.5 µM | IGROV-1 38.4 µM | K562 6.47 µM | NCI-H23 21.6 µM | NCI-H522 15.1 µM | OVCAR-3 35.2 µM | OVCAR-5 > 100 µM | SF-268 38.7 µM | SK-OV-3 23.3 µM | SW-620 17.8 µM | UACC-257 37.5 µM | UACC-62 31.6 µM

CSCC(COC(C)=O)(CSC)c1ccncc1
inactive: 786-0 > 100 µM | A549 > 100 µM | CCRF-CEM > 100 µM | DMS-114 > 100 µM | DMS-273 > 100 µM | EKVX > 100 µM | HL-60 > 100 µM | IGROV-1 > 100 µM | K562 > 100 µM | NCI-H23 > 100 µM | NCI-H522 > 100 µM | OVCAR-3 > 100 µM | SF-268 > 100 µM | SK-OV-3 > 100 µM | SW-620 > 100 µM | UACC-257 > 100 µM | UACC-62 > 100 µM

O=C(Nc1cccc(O)c1)C(=O)C(C(=O)c1ccc(Cl)c(Cl)c1)C1OC(=O)c2ccccc21 (configuration not stated)
inactive: 786-0 13.6 µM | A549 37 µM | CCRF-CEM 12.5 µM | DMS-114 12.1 µM | DMS-273 10.1 µM | EKVX 18.5 µM | HL-60 12.9 µM | HOP-18 25.5 µM | IGROV-1 22.2 µM | K562 15 µM | NCI-H23 16.6 µM | NCI-H522 9.82 µM | OVCAR-5 22 µM | SF-268 10.4 µM | SK-OV-3 12.8 µM | SW-620 14.4 µM | UACC-257 20.6 µM | UACC-62 17.5 µM

C=CCCCC(C#N)(c1ccccc1)N1CCCC1 (configuration not stated)
inactive: 786-0 > 100 µM | A549 > 100 µM | CCRF-CEM > 100 µM | DMS-114 > 100 µM | DMS-273 > 100 µM | EKVX > 100 µM | HL-60 > 100 µM | IGROV-1 > 100 µM | K562 > 100 µM | NCI-H23 > 100 µM | NCI-H522 > 100 µM | OVCAR-3 > 100 µM | OVCAR-5 > 100 µM | SF-268 > 100 µM | SK-OV-3 > 100 µM | SW-620 > 100 µM | UACC-257 > 100 µM | UACC-62 > 100 µM

Cc1ccc(S(=O)(=O)OC(C=O)C(O)C(O)COC(c2ccccc2)(c2ccccc2)c2ccccc2)cc1 (configuration not stated)
inactive: 786-0 14.1 µM | A549 18.2 µM | DMS-114 17.6 µM | DMS-273 21.9 µM | EKVX 13.9 µM | IGROV-1 15.1 µM | K562 16.9 µM | NCI-H522 13.1 µM | OVCAR-3 14.9 µM | OVCAR-5 20.1 µM | SF-268 19.6 µM | SK-OV-3 15 µM | SW-620 16.4 µM | UACC-257 13.2 µM | UACC-62 15.2 µM

NNC(=O)N/N=C1\CNC(=O)C(=O)C1c1nc2ccccc2s1 (configuration not stated)
inactive: 786-0 > 100 µM | A549 > 100 µM | CCRF-CEM > 100 µM | DLD-1 > 100 µM | DMS-114 > 100 µM | DMS-273 > 100 µM | EKVX > 100 µM | HL-60 > 100 µM | IGROV-1 > 100 µM | K562 > 100 µM | NCI-H23 > 100 µM | NCI-H522 > 100 µM | OVCAR-3 > 100 µM | OVCAR-5 > 100 µM | SF-268 > 100 µM | SK-OV-3 > 100 µM | SW-620 > 100 µM | UACC-257 > 100 µM | UACC-62 > 100 µM

Oc1cccc2c1NC1=C(CCC/C1=C\c1ccccc1)C2
inactive: 786-0 > 100 µM | A549 > 100 µM | CCRF-CEM 37.3 µM | DMS-114 67.8 µM | DMS-273 66.7 µM | EKVX > 100 µM | HL-60 40.1 µM | IGROV-1 > 100 µM | K562 59.6 µM | NCI-H23 58.2 µM | NCI-H522 11 µM | OVCAR-3 > 100 µM | SF-268 > 100 µM | SK-OV-3 > 100 µM | SW-620 > 100 µM | UACC-257 57.9 µM
